Laboratory results published in publication PMC10982999, “Structure-Guided Design and Optimization of Covalent VHL-Targeted Sulfonyl Fluoride PROTACs” (Journal of Medicinal Chemistry, 2024).

Columns and labels:
[1] = target: T1, AR (AR-HiBiT LNCaP cells) (Homo sapiens, UniProt P10275, T878A); assay: AR HiBiT degradation assay; assay type: cell-based; settings: read-out: AR DC50
T1 construct: host or cells: AR-HiBiT KI LNCaP
T1 sequence (P10275 1-920 T878A): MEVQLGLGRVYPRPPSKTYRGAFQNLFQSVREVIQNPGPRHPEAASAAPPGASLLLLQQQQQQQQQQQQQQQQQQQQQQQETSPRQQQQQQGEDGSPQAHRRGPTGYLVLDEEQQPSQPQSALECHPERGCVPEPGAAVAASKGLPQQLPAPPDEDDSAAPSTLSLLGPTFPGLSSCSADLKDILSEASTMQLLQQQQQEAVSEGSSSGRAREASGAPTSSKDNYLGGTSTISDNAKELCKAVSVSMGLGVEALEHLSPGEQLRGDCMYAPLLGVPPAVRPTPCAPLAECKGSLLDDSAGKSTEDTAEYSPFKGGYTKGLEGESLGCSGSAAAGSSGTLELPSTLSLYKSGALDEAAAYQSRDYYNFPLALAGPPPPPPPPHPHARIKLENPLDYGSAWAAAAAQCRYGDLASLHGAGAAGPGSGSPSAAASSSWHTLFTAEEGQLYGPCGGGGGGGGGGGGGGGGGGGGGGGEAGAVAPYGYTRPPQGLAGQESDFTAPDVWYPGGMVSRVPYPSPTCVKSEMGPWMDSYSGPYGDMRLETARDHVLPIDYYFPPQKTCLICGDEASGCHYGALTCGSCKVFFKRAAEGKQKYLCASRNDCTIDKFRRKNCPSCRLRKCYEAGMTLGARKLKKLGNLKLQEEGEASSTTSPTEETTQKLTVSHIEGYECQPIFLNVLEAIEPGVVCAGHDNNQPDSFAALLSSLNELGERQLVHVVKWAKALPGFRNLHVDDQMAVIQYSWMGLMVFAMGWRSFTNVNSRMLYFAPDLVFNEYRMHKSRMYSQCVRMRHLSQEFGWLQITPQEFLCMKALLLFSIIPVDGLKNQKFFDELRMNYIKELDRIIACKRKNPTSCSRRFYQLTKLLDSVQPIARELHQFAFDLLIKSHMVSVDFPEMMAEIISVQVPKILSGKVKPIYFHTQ
Procedure: Cellular BRD4/AR HiBiT assay
The HiBiT tagged cells were seeded at 10,000 cells per well in a 384-well plate (Thermo Scientific, 164610) at 25 µL per well in DMEM media containing 10% FBS and incubated overnight. Compounds were dispensed using D300e Digital Dispenser (HP) and normalized to 0.1% DMSO. Cells were pre-treated with Epoxomicin or MLN4924 for 3 h before treatment […]
Nano -Glo HiBiT lytic detection assay was performed as described in the manufacturer protocol (Promega). 25 µL of premixed detection reagent was added to each well of the 384 well assay plate and incubated for 15 min on an orbital shaker (at 600 RPM), and luminescence was read using a PHERAstar FS plate reader (BMG Labtech). Corresponding background RLU values were subtracted from DMSO control values and the percentage of protein (%) of were then calculated against […]
DMSO-treated controls. […]
1:1000 WB), Tubulin (Sigma #4967S 1:5000 WB).

BRD4-HiBiT HEK293T cells = settings: 18 h, 70-0.01 μM

Cc1cc([C@H](C(=O)N2C[C@H](S(=O)(=O)F)C[C@H]2C(=O)N[C@@H](CC(=O)OC(C)(C)C)c2ccc(-c3scnc3C)cc2)C(C)C)on1 [VHL-SF2, tert-Butyl (S)-3-((2S,4R)-4-(Fluorosulfonyl)-1-((R)-3-methyl-2-(3-methylisoxazol-5-yl)butanoyl)pyrr-olidine-2-carboxamido)-3-(4-(4-methylthiazol-5-yl)phenyl)propanoate]
DC50 [1]: > 75 µM | cytotoxicity (CellTiter-Glo) (BRD4-HiBiT HEK293T cells): no evidence of cytotoxicity
